Holding throughout (assay type): cell-based
The nature of data set [1]: cytotoxicity assay in 293 cells. Details: key to effect of inhibiting tumor cell growth: “+” represents that the compound has the effect of inhibiting tumor cell growth. The conditions noted are these: 293.
The subject of data set [2] is kidney cancer cells (293). Kind of data set: cytotoxicity assay in 293 cells. Also noted: key to effect of inhibiting tumor cell growth: “+” represents that the compound has the effect of inhibiting tumor cell growth. The conditions noted are these: Homo sapiens, HEK293.
The test system of another data set is lung cancer cells (TC1). Kind of data set: cytotoxicity assay in TC1 cells. The note with it: for IC50: TC-1. Details: key to effect of inhibiting tumor cell growth: “+” represents that the compound has the effect of inhibiting tumor cell growth. Put shortly: (§1)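 Cells are treated with each Formula (I) compound, viability loss is measured, and the IC50 is derived.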

Data set [3] deals with lung cancer cells (H1299). Briefly: cytotoxicity assay in H1299 cells. The note with it: for effect of inhibiting tumor cell growth: H1299; for IC50: Homo sapiens, NCI-H1299. Details: key to effect of inhibiting tumor cell growth: “+” represents that the compound has the effect of inhibiting tumor cell growth. Put shortly:
as §1

The test system of data set [4] is lung cancer cells (Bm7brmx2-2nd). Briefly: cytotoxicity assay in Bm7brmx2-2nd cells. Also noted: key to effect of inhibiting tumor cell growth: “+” represents that the compound has the effect of inhibiting tumor cell growth. Put shortly:
as §1

Data set [5] has as its system lung cancer cells (Bm7brmx2). Briefly: cytotoxicity assay in Bm7brmx2 cells. Details: key to effect of inhibiting tumor cell growth: “+” represents that the compound has the effect of inhibiting tumor cell growth. Put shortly: as §1
Data set [6] has as its system lung cancer cells (Bm7brmx2-1st). Briefly: cytotoxicity assay in Bm7brmx2-1st cells. Also noted: key to effect of inhibiting tumor cell growth: “+” represents that the compound has the effect of inhibiting tumor cell growth. A digest of the protocol:
as §1

A further data set has as its system lung cancer cells (A549). Kind of data set: cytotoxicity assay in A549 cells. The note with it: for IC50: Homo sapiens. Also noted: key to effect of inhibiting tumor cell growth: “+” represents that the compound has the effect of inhibiting tumor cell growth. A digest of the protocol: as §1
For data set [7], the system named is CDCP1 in Bm7 lung cancer cells. Briefly: Western blot of ADAM9 and CDCP1 expression in Bm7 cells. The note with it: anchorage-free culture. The method, then: (§2) Please refer to FIG. 1A, FIG. 1B and Table 2, which show the analysis results of the compound of Formula (I) inhibiting ADAM9 activity. In FIG. 1A, Bm7 lung cancer cells were treated with the derivatives of the compound 6X-0310, and then cultured under anchorage-free culture condition. The expressions of ADAM9 and CDCP1 in Bm7 lung cancer cells were detected by Western blot, in which EF1α is an internal control, and mock represents Bm7 lung cancer cells without treatment. […] In the experiment, the compounds of Formula (I) of Example 1 to Example 32 were further performed cytotoxicity assay to measure the IC50 value of the compounds of Formula (I) of the present disclosure in lung cancer cell lines.
In general terms: A western blot detects proteins with antibodies after separation by electrophoresis.

The test system of another data set is HNOF. Briefly: cytotoxicity assay in HNOF cells. The note with it: HNOF. Also noted: key to effect of inhibiting tumor cell growth: “+” represents that the compound has the effect of inhibiting tumor cell growth.
Data set [8] in a line: cytotoxicity assay in HNOF cells. The conditions noted are these: human, HNOF cells. Also noted: key to effect of inhibiting tumor cell growth: “+” represents that the compound has the effect of inhibiting tumor cell growth.
In a further data set the test system is Bm7 lung cancer cells. Kind of data set: cytotoxicity assay, FIG. 1B and Table 2 summary. On the procedure:
as §2

Each structure is given as a SMILES string.

Consider `COc1ccc(OC)c(/C=N/Nc2nc(CCN3C(=O)c4ccccc4C3=O)cs2)c1` [2X-0295], for which the “effect of inhibiting tumor cell growth” value (in data set [1]; in the data set with lung cancer cells (TC1); in data set [3]; in [4]; in [5]; in [6]) was “+” throughout. Also, the “effect of inhibiting tumor cell growth” value in the data set on lung cancer cells (A549) and in the data set with HNOF was “+” throughout. Besides, the IC50 in data set [2] was 77.4 µM; with lung cancer cells (TC1), 79 µM; in data set [3], 72 µM; in data set [4], 267 µM; in data set [5], 75.2 µM; in data set [6], 53.2 µM. Besides, the IC50 amounted to 1020 µM with lung cancer cells (A549) and 78.4 µM in data set [8]. Besides, in data set [7], the “expression of CDCP1” value is on record as “reduce the expression of CDCP1”. The “tumor cell cytotoxicity compared with the core structure compound 6X-0310” value in the data set on Bm7 lung cancer cells is “stronger tumor cell cytotoxicity”.

With `CSc1ccc(/C=C(/C#N)c2nc(CCN3C(=O)c4ccccc4C3=O)cs2)cc1` [4X-0296], the “effect of inhibiting tumor cell growth” value (in [1]; in the data set with lung cancer cells (TC1); in data set [3]; in data set [4]; in data set [5]; in [6]) was “+” each time. Moreover, the “effect of inhibiting tumor cell growth” value in the data set on lung cancer cells (A549) and in the data set on HNOF was “+” each time. Besides, the IC50 in data set [2] amounted to 79.2 µM; in the data set with lung cancer cells (TC1) it was 73.6 µM; in data set [3] it was 94.5 µM; in data set [4] it was 447 µM; in [5], 92 µM; in data set [6] it was 39.3 µM. Further, the IC50 came to 167 µM in the data set on lung cancer cells (A549) and 96.2 µM in [8]. Further, the “expression of CDCP1” value in data set [7] was “reduce the expression of CDCP1”. Moreover, in the data set on Bm7 lung cancer cells, the “tumor cell cytotoxicity compared with the core structure compound 6X-0310” value was “stronger tumor cell cytotoxicity”.

As for `N#C/C(=C\c1ccc(OCc2cccc(C(F)(F)F)c2)cc1)c1nc(CCN2C(=O)c3ccccc3C2=O)cs1` [6X-0310], the “effect of inhibiting tumor cell growth” value (in [1]; in the data set on lung cancer cells (TC1); in data set [3]; in data set [4]; in [5]; in data set [6]) was “+” in each case. Further, the “effect of inhibiting tumor cell growth” value in the data set on lung cancer cells (A549) and in the data set on HNOF was “+” in each case. In addition, the IC50 came out at 58.9 µM in [2]; 111 µM in the data set with lung cancer cells (TC1); 116 µM in data set [3]; 250 µM in data set [4]; 176 µM in [5]; 54.6 µM in data set [6]. Also, the IC50 in the data set with lung cancer cells (A549) came out at 200 µM; in [8], 141 µM. In addition, the “expression of CDCP1” value in [7] was “reduce the expression of CDCP1”.

As to `O=C1c2ccccc2C(=O)N1CCc1csc(COc2ccccc2Cl)n1` [12W-0264], the “effect of inhibiting tumor cell growth” value (in data set [1]; with lung cancer cells (TC1); in data set [3]; in data set [4]; in [5]; in data set [6]) was “+” in each case. Further, the “effect of inhibiting tumor cell growth” value with lung cancer cells (A549) and in the data set on HNOF was “+” in each case. Moreover, the concentration for half-maximal inhibition (IC50) in data set [2] worked out at 59.7 µM; in the data set with lung cancer cells (TC1) it was 88.9 µM; in data set [3], 138 µM; in data set [4] it was 151 µM; in data set [5], 99.2 µM; in data set [6], 40.9 µM. The IC50 was 162 µM with lung cancer cells (A549) and above 125 µM in data set [8]. In data set [7], the “expression of CDCP1” value is recorded as “reduce the expression of CDCP1”. Further, the “tumor cell cytotoxicity compared with the core structure compound 6X-0310” value in the data set on Bm7 lung cancer cells is listed as “stronger tumor cell cytotoxicity”.

One may read the IC50 as the concentration needed to halve the response being measured.

The values above are taken from patent US20220202783A1, “Use Of ADAM9 Inhibitor As Immunomodulator” (China Medical University, priority 2019, published 2022).
